SMILES strings stand for the structures.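 Following 48 hours of exposure in 96-well plates, responses at five concentrations were used to interpolate endpoints linearly. GI50 = concentration required for 50% inhibition of growth. TGI: concentration producing complete growth inhibition.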 Where only a bound is given, the exact number is not on record here.

Holding throughout (assay): growth of human tumour cells (NCI), 48 h
For test [1], the system named is CAKI-1 renal.
The subject of test [2] is CCRF-CEM leukemia.
In test [3] the test system is HS 578T breast.
In test [4] the test system is K-562 leukemia.
The test system of test [5] is MCF7 breast.
The subject of test [6] is NCI-H226 lung.
The test system of test [7] is SNB-75 CNS.
The test system of test [8] is UO-31 renal.
The subject of test [9] is MDA-MB-231 breast.
The subject of test [10] is MDA-N.
The test system of test [11] is 786-0 renal.

`C=C(C)[C@@H]1CC[C@]2(C(=O)Nc3ccccn3)CC[C@]3(C)[C@H](CC[C@@H]4[C@@]5(C)CCCNC(C)(C)[C@@H]5CC[C@]43C)[C@@H]12`: the GI50 is 1.55 µM in test [1]; 3.02 µM in [2]; 1.92 µM in test [3]; 1.45 µM in test [4]; 1.48 µM in test [5]; 5.31 µM in test [6]. Besides, the GI50 in [7] is 1.72 µM; in [8] it was 1.44 µM. The TGI in test [1] is 2.93 µM; in [2] it was above 100 µM; in test [3] it was 4.42 µM; in [4], 4.78 µM; in test [5], 3.07 µM; in test [6], 33.4 µM. Also, the TGI in [7] amounted to 5.89 µM; in [8], 2.8 µM.
Turning to `Nc1ccc(OCC(O)N2C(=O)c3ccccc3C2=O)cc1` (stereo not given), the TGI in test [2], in [4], in test [5], in [9], in [10] and in [8] was above 100 µM in each case.
Regarding `COc1ccc2c(c1)CCC(CN1CCN(CCOC(c3ccc(F)cc3)c3ccc(F)cc3)CC1)C2O` (stereo not given), the TGI in test [11] was 25.2 µM; in [1], 32 µM; in test [2] it was 48.3 µM; in test [3], 38.7 µM; in test [4] it was 45 µM; in test [5] it was 39.7 µM. Besides, the TGI was 27.4 µM in [9], 29.7 µM in test [10], 39.8 µM in test [6] and 32.9 µM in [7].
As for `COc1ccc2[nH]c3c([N+](=O)[O-])ccc(Cl)c3c(=O)c2c1`, the TGI is 33.7 µM in test [11]; 49.5 µM in [1]; 10.2 µM in test [2]; above 100 µM in [3]; 13.2 µM in test [4]; above 84.8 µM in [5]. In addition, the TGI was 32.8 µM in test [9], above 55.6 µM in test [10], above 100 µM in test [6] and 35.5 µM in test [8].
As for `CC(C)(C)C1(c2ccc(C3(c4ccccc4)Oc4ccccc4S3)[nH]2)Oc2ccccc2S1` (stereo not given), the TGI in test [1], in test [2], in [4], in [6] and in test [8] was above 100 µM each time.
Take `C=C1CC23CCC4C(C)(C(=O)O)CCCC4(C)C2CCC1C3` (stereo not given): the TGI in test [11], in test [1], in [2], in [3], in [4] and in [5] was above 100 µM throughout. The TGI in test [9] was above 100 µM; in test [10], above 100 µM; in [6] it was above 100 µM; in [7], above 100 µM; in test [8], 88.2 µM.
For the compound `Cc1ccc(P(c2ccc(C)cc2)c2ccc(C)cc2)cc1`, the TGI in test [1] is 98.5 µM; in test [2], 46.5 µM; in [3], 57 µM; in test [4], above 100 µM; in [5], above 100 µM; in test [9], 67.6 µM. The TGI in test [10] worked out at 55.8 µM; in test [7] it was 49.5 µM; in test [8] it was 4.54 µM.
With `COC1/C=C\OC2(C)Oc3c(C)c(O)c4c(O)c(c(/C=N\OCCCc5ccccc5)c(O)c4c3C2=O)NC(=O)/C(C)=C\C=C/C(C)C(O)C(C)C(O)C(C)C(OC(C)=O)C1C` (stereo not given), the TGI in [11] came out at 9.81 µM; in test [1], 15.2 µM; in [2], 6.35 µM; in test [3], 25.2 µM; in test [4] it was 15.4 µM; in test [5], 5.6 µM. Further, the TGI in [9] is 7.97 µM; in test [10], 13 µM; in test [6], 7.09 µM; in [7] it was 8.86 µM.
With `O=Nc1ccc(O)c2ncccc12`, the TGI in [11] is 14.7 µM; in [1], 31.1 µM; in test [2] it was above 100 µM; in test [3], 3.66 µM; in test [4] it was above 100 µM; in test [5] it was 16.6 µM. Also, the TGI in [9] amounted to 57.3 µM; in [10], 6.01 µM; in [6], 42.8 µM; in test [7] it was 8.48 µM; in test [8], 13.5 µM.
`C=C1C(=O)CCC1C(=O)O` (stereo not given): the TGI in test [11], in [2], in test [3], in test [4], in test [5] and in [9] was above 100 µM each time. The TGI in test [10], in [6], in [7] and in test [8] was above 100 µM each time.
Consider `C[C@H](C(=O)N[C@@H](Cc1ccc(-c2ccccc2)cc1)C(=O)NC1CC(C)(C)N(C)C(C)(C)C1)c1ccc(-c2ccccc2)c(F)c1`, for which the GI50 was 1.49 µM in test [9], 1.35 µM in [7] and 1.27 µM in test [8]. In addition, the results for the TGI in [9], in test [7] and in [8] were 3.02 µM, 3.74 µM and 2.64 µM, respectively.
On to `C=C(C)C1CC2=C(O1)C(=O)c1ccccc1C2=O` (stereo not given), for which the TGI in [1] worked out at 31.7 µM; in test [2], 52.7 µM; in test [4] it was 42.1 µM; in test [7], 31.8 µM.
On to `Nc1nc(N)c2ncn(-c3ccc(Cl)c(Cl)c3)c2n1`, for which the TGI in test [11] was 27.5 µM; in [1] it was above 100 µM; in test [2] it was 28.8 µM; in [3] it was 42.4 µM; in [5], above 100 µM; in [9], 77.7 µM. The TGI in [10] is above 100 µM; in test [6], above 100 µM; in [8], 59.2 µM.
As for `O=[N+]([O-])c1ccc(/C=N\Nc2ccc([N+](=O)[O-])cn2)cc1`, the TGI in test [11], in test [2], in [3], in test [4], in [5] and in [9] was above 100 µM throughout. Moreover, the TGI in test [10], in test [6], in [7] and in [8] was above 100 µM throughout.
For the compound `O=C(O)CC(C(=O)O)C1c2ccccc2-c2ccccc21` (stereo not given), the TGI in test [11], in test [1], in test [2], in [3], in test [4] and in test [5] was above 100 µM throughout. The TGI in test [9], in test [10], in [6] and in [8] was above 100 µM throughout.
On to `CC(C)=CCc1c(O)ccc2c1OC1c3ccc(O)c(CC=C(C)C)c3OCC21` (stereo not given), for which the TGI in test [1] amounted to 25 µM; in test [2], 43 µM; in [4] it was 25.3 µM; in [5], 16.9 µM; in test [6], 30.7 µM; in [7], 33.9 µM. Besides, the TGI in [8] is 24 µM.
Regarding `CN1CCC(C(=O)NNc2ccccc2)CC1`, the TGI in [11] is above 100 µM; in test [1], above 100 µM; in [2], above 100 µM; in [6] it was above 100 µM; in test [7] it was above 100 µM; in test [8] it was 24.4 µM.
Consider `N=C(N)c1ccc(-c2ccc(-c3cncc4ccccc34)s2)cc1F`, for which the GI50 is 1.52 µM in [1], 1.4 µM in test [9], 1.73 µM in test [7] and 1.77 µM in [8]. Further, the TGI was found to be 2.91 µM in [1], 3.12 µM in test [9], 3.14 µM in [7] and 3.41 µM in test [8].
As for `COc1cc(C(C)(C)C)cc(OC)c1C(O)(c1c(OC)cc(C(C)(C)C)cc1OC)c1c(OC)cc(C(C)(C)C)cc1OC`, the GI50 in test [3] is 0.711 µM. In test [8], the GI50 was 0.241 µM and the TGI is 0.745 µM.
Consider `FC(F)(F)c1ccc2c(c1)nc(Cc1ccc(Cl)c(Cl)c1)n2CC1CCCN2CCCCC12` (stereo not given), for which the TGI was 30.7 µM in test [11]; above 100 µM in test [1]; 34.4 µM in test [3]; above 100 µM in test [4]; 62.9 µM in [5]; 48.7 µM in test [9]. Also, the TGI in [10] is 38.8 µM; in test [6], 90.7 µM; in [7], above 100 µM.
As to `CCN=C=NCCCN(C)C`, the TGI in [11], in test [1], in test [2], in test [3], in test [4] and in test [5] was above 100 µM throughout. For the same compound, the TGI in [9], in [10], in test [6], in [7] and in test [8] was above 100 µM in each case.
For `C=C(CN(C)C)C(=O)c1ccc(C)cc1C`, the TGI was 12.5 µM in test [11]; 8.39 µM in [1]; 2.14 µM in test [2]; above 79 µM in test [3]; 9.74 µM in test [4]; 13.9 µM in [5]. For the same compound, the TGI was found to be 52.1 µM in test [9]; 14.3 µM in [10]; 34.5 µM in test [6]; 34.9 µM in [7]; 22.3 µM in test [8].
Regarding `O=C(/C=c1\oc(=O)/c(=C/C(=O)c2ccc(Cl)cc2)oc1=O)c1ccc(Cl)cc1`, the TGI in [11], in test [1], in [2], in [3], in test [4] and in [5] was above 100 µM in each case. Also, the TGI in test [9], in test [10], in test [6] and in test [8] was above 100 µM each time.
`C/C1=N\NC(=O)c2ccccc2C(=O)N/N=C(\C)c2cccc1n2.O=[N+]([O-])[O-].[Zn+2]`: the TGI in test [11], in test [1], in test [2], in [4], in test [7] and in test [8] was above 100 µM in each case.
As for `COc1ccc(-c2nn(-c3ccc(NC(=O)Nc4ccc(Cl)c(Cl)c4)cc3)cc2-c2ccncc2)cc1Cl`, the GI50 is 1.95 µM in [1]; 2.09 µM in test [2]; 1.42 µM in [3]; 1.43 µM in test [4]; 2.37 µM in test [5]; 1.5 µM in [9]. Moreover, the GI50 in [6] is 3.49 µM; in test [7], 1.17 µM; in test [8], 1.51 µM. Besides, the TGI in test [1] is 15.4 µM; in test [2] it was above 100 µM; in test [3], 7.63 µM; in test [4], above 100 µM; in test [5], 9.34 µM; in test [9] it was 4.33 µM. Also, the TGI in [6], in test [7] and in test [8] was above 100 µM in each case.
For `c1ccc(-n2cnnc2-c2nsc3ccccc23)cc1`, the TGI in test [2], in [4], in test [7] and in [8] was above 100 µM in each case.

The values are drawn from PubChem BioAssay (NCI).
